Data published in publication PMC8899474, “Discovery and Characterization of the Key Constituents in Ginkgo biloba Leaf Extract With Potent Inhibitory Effects on Human UDP-Glucuronosyltransferase 1A1” (Frontiers in Pharmacology, 2022).

Legend:
hUGT1A1 [1] = molecular target: T1, hUGT1A1 (Homo sapiens, UniProt P22309); experiment: UGT1A1 inhibition assay and inhibition kinetics in human liver microsomes (NHPN-O-glucuronidation); type: biochemical; conditions: NHPN-O-glucuronidation in HLM; for Ki: second plot of Lineweaver-Burk slopes
T1 sequence (P22309 26-533): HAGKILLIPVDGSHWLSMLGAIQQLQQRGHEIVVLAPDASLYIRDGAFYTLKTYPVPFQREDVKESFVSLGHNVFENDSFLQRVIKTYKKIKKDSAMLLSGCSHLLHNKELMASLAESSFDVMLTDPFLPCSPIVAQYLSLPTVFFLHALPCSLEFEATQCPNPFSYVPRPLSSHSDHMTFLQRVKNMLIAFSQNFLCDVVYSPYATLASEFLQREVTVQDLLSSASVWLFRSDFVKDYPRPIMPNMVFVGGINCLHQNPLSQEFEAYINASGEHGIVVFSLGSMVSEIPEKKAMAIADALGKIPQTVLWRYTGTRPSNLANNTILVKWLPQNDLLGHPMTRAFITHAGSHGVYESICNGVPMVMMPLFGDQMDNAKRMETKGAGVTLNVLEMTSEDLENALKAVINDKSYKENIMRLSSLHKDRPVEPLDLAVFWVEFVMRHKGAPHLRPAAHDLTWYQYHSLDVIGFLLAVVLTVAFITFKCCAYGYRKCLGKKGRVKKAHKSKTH
Method: A set of incubations by changing both the fluorescent substrate concentration and the inhibitor concentration were performed to determine the inhibition kinetic modes and the corresponding inhibition constant (K i ) values. The incubation and analytical sample preparation were conducted as described previously. Goodness-of-fit parameter and Akaike’s Information Criterion (AIC) were employed to select the most appropriate inhibition kinetic modes from the following three inhibition modes including competitive inhibition Eq. 1, noncompetitive inhibition Eq. 2, or mixed inhibition Eq. 3, V=Vmax×[S]/Km×(1+[I]/Ki)+[S] (1) V=Vmax×[S]/(Km+[S])×(1+[I]/Ki) (2) V=Vmax×[S]/Km×(1+[I]/Ki)+[S]×(1+[I]/αKi) (3)
Here, V is the turnover of the glucuronidation reaction; V max is the maximum velocity; S and I are the substrate and inhibitor concentrations, respectively; K m is the Michaelis constant (substrate concentration at 0.5 V max ); K i is the inhibition constant that describes the affinity of the inhibitor towards hUGT1A1. The corresponding K i value of each tested inhibitor is calculated by utilizing the slopes of second plot from Lineweaver-Burk plot versus inhibitor concentrations.

hUGT1A1 [2] = molecular target: T1, hUGT1A1; experiment: as above; type: biochemical; conditions: NHPN-O-glucuronidation in HLM
hUGT1A1 [3] = molecular target: T1, hUGT1A1; experiment: UGT1A1 inhibition assay with recombinant UGT1A1 (NHPN-O-glucuronidation)
Method: NHPN was used for evaluating the inhibitory effects of GBL extract on HLM. A typical incubation mixture with a total volume of 200 μl consisted of 50 mM Tris-HCl (pH = 7.4), 5 mM MgCl2, 2 mM UDPGA, NHPN (diluted by DMSO, 5 μM) and the enzymes. […] The final concentration of DMSO in the incubation mixture was less than 1%. […] A concentration of 5 μg/ml was used when recombinant UGT1A1 was the enzyme source. After pre-incubation for 3 min at 37°C, UDPGA was added to the incubation mixture to initiate the reaction. After 60 min incubation at 37°C, the reaction was terminated by adding 200 μl ice-cold acetonitrile, and the incubation mixture was kept on ice. After centrifugation at 20,000×g for 20 min at 4°C, 5 μl aliquots of the supernatant was taken for LC-FD analysis.
The residual activity of hUGT1A1 was determined as follows: Residual activity (%) = (the fluorescence intensity of NHPNG generated in the incubations with inhibitor)/(the fluorescence intensity of NHPNG generated in the incubations without inhibitor) × 100%. A set of incubations with the same fluorescent substrate concentration and different inhibitor concentrations were performed to determine the half maximal inhibition concentration (IC50).

hUGT1A1 [4] = molecular target: T1, hUGT1A1; experiment: UGT1A1 inhibition assay in living HeLa-UGT1A1 cells (NHPN-O-glucuronidation, LC-FD); type: cell-based; set-up: expressed in transfected cells; host or cells: HeLa cells, stably transduced with lentivirus (HeLa-UGT1A1); conditions: for inhibition of intracellular hUGT1A1: high concentration (100 μM), HeLa-UGT1A1 cells
Method: A RF-20A FD detector coupled UFLC system (Shimadzu, Kyoto, Japan), equipped with a DGU-20A5R vacuum degasser, two LC-20ADXR pumps, a SIL-20ACXR autosampler and a CTO-20A column oven, was used to quantify NHPN and NHPNG. Chromatographic separation of analytes was carried out on a shim-pack Acchrom HC-C18 analytical column (2.0 × 150 mm, 4.6 μm particle size), while the column temperature was kept at 40°C. The flow rate was kept at 0.5 ml/min. The mobile phase consisted of acetonitrile (A) and water containing 0.2% formic acid (B). The gradient of the mobile phase was as follows: 0–0.5 min, 80–60% B; 0.5–3.5 min, 60–5% B; 3.5–5 min, 5% B; 5–7.5 min, equilibration with 80% B. The excitation wavelength and the emission wavelength were set at 370 and 520 nm, respectively for detection.
The inhibitory effects of herbal products and chemical constituents of GBL extract on UGT1A1 were investigated in living HeLa-UGT1A1 cells by using a specific fluorescent substrate, NHPN, as a probe. HeLa-UGT1A1 cells were cultured at 37°C in 5% CO2 in Modified Eagle’s Medium (MEM) containing 0.1% antibiotic-antimycoticmix, supplemented with 10% fetal bovine serum (FBS). HeLa-UGT1A1 cells were seeded in 96-well plates and cultured for 24 h. The cells were incubated in the medium containing different kinds of herbal products (final concentration, 10 μg/ml) or chemical constituents of GBL extract (diluted to different concentration by DMSO with the final concentration of 1% DMSO in each incubation) for 60 min at 37°C under 5% CO2, and co-incubated with NHPN (final concentration, 50 μM) for another 60 min. […] The validation data for this cell-based flourescence assay can be found in our previous publication ([Zhu et al., 2020]).

[5] = hUGT1A1-catalyzed NHPN-O-glucuronidation in HeLa-UGT1A1 cells, read-out: IC50

Compound | IC50 (hUGT1A1 [2]) | IC50 (hUGT1A1 [4]; [5]) | also measured
COc1ccc(-c2cc(=O)c3c(O)cc(O)cc3o2)cc1-c1c(O)cc(O)c2c(=O)cc(-c3ccc(O)cc3)oc12 [Bilobetin] | 200 ± 23 nM | 410 ± 48 nM | Inhibition mode (hUGT1A1 [1]): Mixed; Ki (hUGT1A1 [1]): 180 nM; IC50 (hUGT1A1 [3]): 100 to 290 nM
Ginkgolide C |  |  | inhibition of intracellular hUGT1A1 (hUGT1A1 [4]): did not inhibit
Ginkgolide B |  |  | inhibition of intracellular hUGT1A1 (hUGT1A1 [4]): did not inhibit
O=c1cc(-c2ccc(O)cc2)oc2cc(O)cc(O)c12 [Apigenin] |  | 1890 ± 240 nM | 
COc1ccc(-c2cc(=O)c3c(O)cc(O)c(-c4cc(-c5cc(=O)c6c(O)cc(O)cc6o5)ccc4OC)c3o2)cc1 [Isoginkgetin] | 670 ± 85 nM | 160 ± 20 nM | Inhibition mode (hUGT1A1 [1]): Mixed; Ki (hUGT1A1 [1]): 740 nM; IC50 (hUGT1A1 [3]): 100 to 290 nM
O=c1c(O)c(-c2cc(O)c(O)c(O)c2)oc2cc(O)cc(O)c12 [Myricetin] |  | 64600 ± 12200 nM | 
COc1cc(O)c2c(=O)cc(-c3ccc(O)cc3)oc2c1 [Genkwanin] |  | 1500 ± 460 nM | 
O=c1c(O)c(-c2ccc(O)c(O)c2)oc2cc(O)cc(O)c12 [Quercetin] |  | 2050 ± 240 nM | 
COc1cc(O)c2c(=O)cc(-c3ccc(OC)c(-c4c(O)cc(O)c5c(=O)cc(-c6ccc(O)cc6)oc45)c3)oc2c1 [Ginkgetin] | 150 ± 14 nM | 75 ± 9 nM | Inhibition mode (hUGT1A1 [1]): Mixed; Ki (hUGT1A1 [1]): 70 nM; IC50 (hUGT1A1 [3]): 100 to 290 nM
C[C@@H]1C(=O)O[C@H]2C[C@@]34[C@H]5C[C@@H](C(C)(C)C)[C@]36[C@@H](OC(=O)[C@@H]6O)O[C@@]4(C(=O)O5)[C@]21O [Ginkgolide A] |  | > 100000 nM | inhibition of intracellular hUGT1A1 (hUGT1A1 [4]): did not inhibit
O=c1cc(-c2ccc(O)c(O)c2)oc2cc(O)cc(O)c12 [Luteolin] |  | 1410 ± 170 nM | 
O=c1cc(-c2ccc(O)c(-c3c(O)cc(O)c4c(=O)cc(-c5ccc(O)cc5)oc34)c2)oc2cc(O)cc(O)c12 [Amentoflavone] | 410 ± 34 nM | 3290 ± 470 nM | 
CC(C)(C)[C@]1(O)CC2OC(=O)CC23C(=O)OC2OC(=O)[C@H](O)C231 (stereo partly shown) [Bilobalide] |  |  | IC50 (hUGT1A1 [4]): > 100000 nM; inhibition of intracellular hUGT1A1 (hUGT1A1 [4]): did not inhibit
O=c1c(O)c(-c2ccc(O)cc2)oc2cc(O)cc(O)c12 [Kaempferol] |  | 1380 ± 190 nM | 
COc1cc(-c2oc3cc(O)cc(O)c3c(=O)c2O)ccc1O [Lsorhamnetin, isorhamnetin] |  | 1680 ± 340 nM | 
COc1ccc(-c2cc(=O)c3c(O)cc(O)c(-c4cc(-c5cc(=O)c6c(O)cc(OC)cc6o5)ccc4OC)c3o2)cc1 [Sciadopitysin] | 280 ± 36 nM | 110 ± 9 nM | Inhibition mode (hUGT1A1 [1]): Mixed; Ki (hUGT1A1 [1]): 670 nM
